These results are taken from ChEMBL document CHEMBL1833836, “Synthesis and evaluation of phosphoramidate and phosphorothioamidate analogues of amiprophos methyl as potential antimalarial agents” (Bioorg Med Chem Lett, 2011).

Calls of active or inactive are those of the source. No cut-off for these calls is given here. Where only a bound is given, the exact number is not on record here.

Experiment [1] concerns Plasmodium falciparum. Briefly: Antimicrobial activity against Plasmodium falciparum. In kind it is functional, organism-based.
For experiment [2], the system named is Plasmodium falciparum. The experiment in a line: Antimalarial activity against Plasmodium falciparum 3D7 infected in O-positive human erythrocytes assessed as inhibition of parasite lactate dehydrogenase after 72 hrs by pLDH method. The format is functional, organism-based. The settings on record: 3D7, 72 h.
For experiment [3], the system named is Plasmodium falciparum. The experiment in a line: Ratio of compound IC50 to APM IC50 for Plasmodium falciparum 3D7. In kind it is functional.
For experiment [4], the system named is Plasmodium falciparum. Briefly: Antimicrobial activity against Plasmodium falciparum up to 128 uM. In kind it is functional, organism-based.
In experiment [5] the test system is Cryptosporidium parvum. The experiment in a line: Antimicrobial activity against Cryptosporidium parvum infected in HCT8 cells assessed as parasite count after 72 to 120 hrs. The format is functional, organism-based. The settings on record: HCT-8.

For orientation: IC50 means the concentration that inhibits the measured activity by half. With `CCN(CC)CCN(CC)c1c([N+](=O)[O-])cc([N+](=O)[O-])cc1C(F)(F)F`, in experiment [1], the IC50 amounted to 0.44 µM.

Turning to `CCOP(=O)(Oc1ccc(C(F)(F)F)cc1)N1CCOCC1` (stereo unspecified), the IC50 in experiment [2] came out at 98 µM. Besides, in experiment [3], the “Ratio IC50” value is recorded as 20. For the compound `CCOP(=S)(NC1CCCC1)Oc1ccc(C(F)(F)F)cc1` (stereo unspecified), in experiment [2], the IC50 is 8.6 µM. Besides, the “Ratio IC50” value in experiment [3] is 20. Regarding `CC(C)OC(=O)Nc1cccc(Cl)c1`, the inhibition result in experiment [4] is “inactive”.

As to `CCCCNP(=O)(OCC)Oc1ccc(C)cc1[N+](=O)[O-]` (stereo unspecified), the IC50 in experiment [2] was found to be 28 µM. Besides, the “Ratio IC50” value in experiment [3] came to 20. In the case of `COP(=S)(NC(C)C)Oc1ccc(C)cc1[N+](=O)[O-]` (stereo unspecified) [AMIPROPHOS METHYL], the IC50 in experiment [2] was 4 µM. As for `CCOP(=O)(NC(C)C)Oc1ccccc1C(F)(F)F` (stereo unspecified), the IC50 in experiment [2] came out at 87 µM. In addition, the “Ratio IC50” value in experiment [3] stood at 20. For the compound `CCOP(=O)(NC(C)C)Oc1ccc([N+](=O)[O-])cc1C` (stereo unspecified), the IC50 in experiment [2] was 128 µM. Moreover, the “Ratio IC50” value in experiment [3] is 20. For `CCOP(=O)(Oc1ccc(C(F)(F)F)cc1)N1CCCC1` (stereo unspecified), the IC50 in experiment [2] was 56 µM. Besides, the “Ratio IC50” value in experiment [3] was found to be 20. With `CCCCCCCNP(=O)(OCC)Oc1ccc(C(F)(F)F)cc1` (stereo unspecified), in experiment [2], the IC50 worked out at 44 µM. Also, in experiment [3], the “Ratio IC50” value came to 20. Regarding `CCCCCNP(=S)(OCC)Oc1ccc(C(F)(F)F)cc1` (stereo unspecified), the IC50 in experiment [2] worked out at 4.5 µM. On to `CCCCCNP(=O)(OCC)Oc1ccc(C)cc1[N+](=O)[O-]` (stereo unspecified), for which the IC50 in experiment [2] was determined as 51 µM. In experiment [3], the “Ratio IC50” value is 20.

Take `CCOP(=O)(NC1CCCC1)Oc1ccc(Br)cc1` (stereo unspecified): the IC50 in experiment [2] was 17 µM. Moreover, the “Ratio IC50” value in experiment [3] is recorded as 20. As for `CCOP(=S)(NC1CCCC1)Oc1ccc(Br)cc1` (stereo unspecified), the 50% inhibitory concentration (IC50) in experiment [2] stood at 23 µM.

On to `CCOP(=O)(NC(C)C)Oc1ccc(C)cc1Cl` (stereo unspecified), for which the IC50 in experiment [2] came out at 39 µM. In experiment [3], the “Ratio IC50” value was determined as 20. In the same order, the values of `CCOP(=O)(NC(C)C)Oc1cccc(C(F)(F)F)c1` (stereo unspecified) are 50 µM and 20. In the same order, the values of `CCOP(=O)(NC(C)C)Oc1ccc([N+](=O)[O-])c(C)c1` (stereo unspecified) are 79 µM and 20. In the same order, the values of `CCCCNP(=O)(OCC)Oc1ccc(C(F)(F)F)cc1` (stereo unspecified) are 32 µM and 20.

Regarding `CCOP(=O)(Nc1ccc(C)cc1Cl)Oc1ccc(C)cc1Cl` (stereo unspecified), the IC50 in experiment [2] was 102 µM. Besides, the “Ratio IC50” value in experiment [3] amounted to 20.

For `CCOP(=O)(NC(C)C)Oc1ccc(C(F)(F)F)cc1` (stereo unspecified), the IC50 in experiment [2] stood at 50 µM. The “Ratio IC50” value in experiment [3] was found to be 20. For the compound `CCCN(CCC)c1c([N+](=O)[O-])cc(C(F)(F)F)cc1[N+](=O)[O-]` [TRIFLURALIN], the IC50 in experiment [1] came out at 2.9 µM; in experiment [5], 0.75 µM. As for `CCOP(=O)(NC(C)C)Oc1cc([N+](=O)[O-])ccc1C` (stereo unspecified), the half-maximal inhibitory concentration (IC50) in experiment [2] came to 128 µM. Besides, the “Ratio IC50” value in experiment [3] is 20. Consider `CCOP(=O)(NC(C)C)Oc1ccc2ccccc2c1[N+](=O)[O-]` (stereo unspecified), for which the IC50 in experiment [2] came out at 87 µM. The “Ratio IC50” value in experiment [3] was 20.

Regarding `CCOP(=O)(NC(C)C)Oc1ccc(C)cc1Br` (stereo unspecified), the IC50 in experiment [2] stood at 39 µM. In experiment [3], the “Ratio IC50” value was found to be 20.

Consider `CCCN(CCC)c1c([N+](=O)[O-])cc(S(N)(=O)=O)cc1[N+](=O)[O-]` [ORYZALIN], for which, in experiment [5], the IC50 is 0.8 µM.

As for `CCOP(=O)(NC(C)C)Oc1ccc(C)cc1OC` (stereo unspecified), in experiment [2], the IC50 worked out at 128 µM. Moreover, in experiment [3], the “Ratio IC50” value is on record as 20.

`CCOP(=S)(NC1CCCC1)Oc1ccc([N+](=O)[O-])cc1C` (stereo unspecified): the IC50 in experiment [2] was determined as 1.6 µM. With `CCOP(=O)(NC(C)C)Oc1ccc(C)cc1[N+](=O)[O-]` (stereo unspecified), the 50% inhibitory concentration (IC50) in experiment [2] worked out at 126 µM. Also, the “Ratio IC50” value in experiment [3] is 20. With `CCOP(=O)(NC1CCCCC1)Oc1ccc(C(F)(F)F)cc1` (stereo unspecified), the IC50 in experiment [2] amounted to 43 µM. The “Ratio IC50” value in experiment [3] is reported as 20. In the same order, the values of `CCOP(=O)(NCC(C)C)Oc1ccc(C(F)(F)F)cc1` (racemic) are 40 µM and 20. Consider `CCOP(=O)(NC1CCCC1)Oc1ccc(C)cc1[N+](=O)[O-]` (stereo unspecified), for which, in experiment [2], the IC50 is 47 µM. Also, in experiment [3], the “Ratio IC50” value was found to be 20. `CCOP(NC1CCCC1)Oc1ccc(Br)cc1` (stereo unspecified): in experiment [2], the IC50 is 128 µM. Take `CCOP(=O)(NC1CCC1)Oc1ccc(C(F)(F)F)cc1` (stereo unspecified): in experiment [2], the IC50 was 45 µM. Moreover, in experiment [3], the “Ratio IC50” value was 20. For `CCOP(=O)(NC1CCCC1)Oc1ccc(C(F)(F)F)cc1` (stereo unspecified), the IC50 in experiment [2] turned out to be 26 µM. For the same compound, in experiment [3], the “Ratio IC50” value is 20. `CCOP(=O)(NC(C)C)Oc1cc(C)ccc1[N+](=O)[O-]` (stereo unspecified): in experiment [2], the IC50 is more than 128 µM. Also, the “Ratio IC50” value in experiment [3] stood at 20. In the case of `CCOP(=O)(Oc1ccc(C(F)(F)F)cc1)N1CCCCC1` (stereo unspecified), in experiment [2], the IC50 was determined as 84 µM. For the same compound, the “Ratio IC50” value in experiment [3] is 20. The like results for `CCOP(=O)(NC(C)C)Oc1ccccc1` (stereo unspecified) were, in that order, more than 128 µM and 20. The like results for `CCCNP(=O)(OCC)Oc1cc(C)ccc1[N+](=O)[O-]` (stereo unspecified) were, in that order, 102 µM and 20. The like results for `CCOP(=O)(NCC(C)C)Oc1ccc(C)cc1[N+](=O)[O-]` (stereo unspecified) were, in that order, 75 µM and 20.

As to `CCOP(N)(=O)Oc1ccc(C(F)(F)F)cc1` (stereo unspecified), the IC50 in experiment [2] worked out at 79 µM. In addition, the “Ratio IC50” value in experiment [3] is recorded as 20.

With `CCOP(=O)(NC(C)C)Oc1ccc(C)cc1C#N` (stereo unspecified), in experiment [2], the IC50 worked out at 128 µM. Besides, the “Ratio IC50” value in experiment [3] was found to be 20.

For `O=[N+]([O-])c1cc([N+](=O)[O-])c(N2CCC(N3CCCC3)CC2)c(C(F)(F)F)c1`, 0.44 µM corresponded to half-maximal inhibition in experiment [1] (IC50). Consider `CCOP(=O)(NC(C)C)Oc1cccc([N+](=O)[O-])c1C` (stereo unspecified), for which, in experiment [2], the IC50 worked out at 128 µM. For the same compound, the “Ratio IC50” value in experiment [3] is listed as 20. In the same order, the values of `CCOP(=O)(NCC(C)C)Oc1cc(C)ccc1[N+](=O)[O-]` (stereo unspecified) are more than 128 µM and 20. In the same order, the values of `CCCNP(=O)(OCC)Oc1ccc(C)cc1[N+](=O)[O-]` (stereo unspecified) are more than 128 µM and 20. In the case of `CCCCCNP(=S)(OCC)Oc1ccc([N+](=O)[O-])cc1C` (stereo unspecified), in experiment [2], the IC50 is 6.9 µM. Consider `CCOP(=O)(Oc1ccc(C(F)(F)F)cc1)N(CC)CC` (stereo unspecified), for which the IC50 in experiment [2] worked out at 48 µM. In experiment [3], the “Ratio IC50” value turned out to be 20. On to `CCOP(=O)(NC(C)C)Oc1ccc2ccccc2c1` (stereo unspecified), for which the IC50 in experiment [2] amounted to 72 µM. The “Ratio IC50” value in experiment [3] came out at 20.
